Data taken from patent US12637424B2, “Pharmaceutical salt of an arylpyrrole derivative” (SENTINEL ONCOLOGY LIMITED, priority 2020, dated 2026).

Legend:
Assay in all cases: DiscoverX KinomeScreen competition binding assay (kinase selectivity panel)
[1] = target: T1, panel of ninety-seven kinases (Homo sapiens, UniProt P36897); conditions: TGFBR1; screened at 3000 nM
T1 construct: purchased DiscoverX; host or cells: E. coli (BL21-derived, T7 phage display) or HEK-293
Protocol: (§1) This has been investigated by testing atropisomer A-2 for off-target activity against a panel of ninety-seven kinases distributed across the kinome at a concentration of 3 μM using the DiscoverX KinomeScreen assay. The DiscoverX KinomeScreen assay is a site-directed competition binding assay which measures the binding affinity of a compound to a kinase, by use of a solid supported control compound which can bind or capture the kinases in solution. In the absence of a kinase-inhibitor test compound, all of the kinase will bind to the solid support. If a kinase-inhibitor test compound is added to the assay mix, the amount of kinase binding to the solid support will be reduced, the extent of reduction being dependent on the potency of the test compound as a kinase inhibitor. […] For most assays, kinase-tagged T7 phage strains were grown in parallel in 24-well blocks in an E. coli host derived from the BL21 strain. E. coli were grown to log-phase and infected with T7 phage from a frozen stock (multiplicity of infection=0.4) and incubated with shaking at 32° C. until lysis (90-150 minutes). The lysates were centrifuged (6,000×g) and filtered (0.2 μm) to remove cell debris. The remaining kinases were produced in HEK-293 cells and subsequently tagged with DNA for qPCR detection. Streptavidin-coated magnetic beads were treated with biotinylated small molecule ligands for 30 minutes at room temperature to generate affinity resins for kinase assays. The liganded beads were blocked with excess biotin and washed with blocking buffer (SeaBlock (Pierce), 1% BSA, 0.05% Tween 20, 1 mM DTT) to remove unbound ligand and to reduce non-specific phage binding. […] Test compounds were prepared as 40× stocks in 100% DMSO and directly diluted into the assay. All reactions were performed in polypropylene 384-well plates in a final volume of 0.02 ml. […] The beads were then re-suspended in elution buffer (1×PBS, 0.05% Tween 20, 0.5 μM non-biotinylated affinity ligand) and incubated at room temperature with shaking for 30 minutes. The kinase concentration in the eluates was measured by qPCR. Compounds that bind the kinase active site and directly (sterically) or indirectly (allosterically) prevent kinase binding to the immobilized ligand, will reduce the amount of kinase captured on the solid support. […] The strength of binding of the test molecule to the kinase can be expressed as the percent control (% Ctrl) The compound(s) were screened at 3000 nM concentration, and results for primary screen binding interactions are reported as ‘% Ctrl’, where lower numbers indicate stronger hits in the matrix on the following page(s). [formula] • negative control=DMSO (100% Ctrl) • positive control=control compound (0% Ctrl)

[2] = target: T2, panel of ninety-seven kinases (Homo sapiens, UniProt P48730); conditions: CSNK1D; screened at 3000 nM
T2 construct: purchased DiscoverX; host or cells: E. coli (BL21-derived, T7 phage display) or HEK-293
Protocol: as §1

[3] = target: T3, panel of ninety-seven kinases (Homo sapiens, UniProt Q06187); conditions: BTK; screened at 3000 nM
T3 construct: purchased DiscoverX; host or cells: E. coli (BL21-derived, T7 phage display) or HEK-293
Protocol: as §1

[4] = target: T4, panel of ninety-seven kinases (Homo sapiens, UniProt P49137); conditions: MAPKAPK2; screened at 3000 nM
T4 construct: purchased DiscoverX; host or cells: E. coli (BL21-derived, T7 phage display) or HEK-293
Protocol: as §1

[5] = target: T5, panel of ninety-seven kinases (Homo sapiens, UniProt Q15759); conditions: MAPK11; screened at 3000 nM
T5 construct: purchased DiscoverX; host or cells: E. coli (BL21-derived, T7 phage display) or HEK-293
T5 sequence (Q15759 whole entry): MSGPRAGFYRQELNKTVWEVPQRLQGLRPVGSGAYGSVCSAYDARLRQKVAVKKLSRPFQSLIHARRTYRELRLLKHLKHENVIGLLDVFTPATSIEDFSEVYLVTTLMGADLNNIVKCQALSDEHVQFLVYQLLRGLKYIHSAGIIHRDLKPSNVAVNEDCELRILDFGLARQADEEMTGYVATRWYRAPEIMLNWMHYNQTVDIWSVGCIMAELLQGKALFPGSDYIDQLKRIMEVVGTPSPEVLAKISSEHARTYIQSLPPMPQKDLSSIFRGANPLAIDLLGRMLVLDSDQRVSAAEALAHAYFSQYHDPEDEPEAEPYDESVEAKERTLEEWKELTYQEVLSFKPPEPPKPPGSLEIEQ
Protocol: as §1

[6] = target: T6, panel of ninety-seven kinases (Homo sapiens, UniProt Q9H4B4); conditions: PLK3; screened at 3000 nM
T6 construct: purchased DiscoverX; host or cells: E. coli (BL21-derived, T7 phage display) or HEK-293
T6 sequence (Q9H4B4 whole entry): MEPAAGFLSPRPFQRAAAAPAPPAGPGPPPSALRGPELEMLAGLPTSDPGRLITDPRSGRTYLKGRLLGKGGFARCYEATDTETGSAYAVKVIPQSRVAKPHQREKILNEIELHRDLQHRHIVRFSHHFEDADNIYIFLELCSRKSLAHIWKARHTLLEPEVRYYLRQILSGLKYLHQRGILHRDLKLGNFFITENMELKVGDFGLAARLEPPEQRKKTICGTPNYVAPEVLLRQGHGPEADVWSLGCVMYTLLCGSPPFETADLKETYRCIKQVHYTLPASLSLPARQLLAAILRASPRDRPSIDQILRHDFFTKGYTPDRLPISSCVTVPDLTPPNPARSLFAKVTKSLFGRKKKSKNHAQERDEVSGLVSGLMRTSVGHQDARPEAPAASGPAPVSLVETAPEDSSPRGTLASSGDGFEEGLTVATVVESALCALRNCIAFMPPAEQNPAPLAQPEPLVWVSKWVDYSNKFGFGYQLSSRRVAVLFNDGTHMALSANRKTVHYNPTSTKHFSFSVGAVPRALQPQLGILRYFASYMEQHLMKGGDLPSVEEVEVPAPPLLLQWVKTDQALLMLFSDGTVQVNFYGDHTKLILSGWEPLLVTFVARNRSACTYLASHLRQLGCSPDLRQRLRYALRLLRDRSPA
Protocol: as §1

[7] = target: T7, panel of ninety-seven kinases (Homo sapiens, UniProt Q8IYT8); conditions: ULK2; screened at 3000 nM
T7 construct: purchased DiscoverX; host or cells: E. coli (BL21-derived, T7 phage display) or HEK-293
Protocol: as §1

[8] = target: T8, panel of ninety-seven kinases (Homo sapiens, UniProt Q9HBH9); conditions: MKNK2; screened at 3000 nM
T8 construct: purchased DiscoverX; host or cells: E. coli (BL21-derived, T7 phage display) or HEK-293
Protocol: as §1

[9] = target: T9, panel of ninety-seven kinases (Homo sapiens, UniProt Q13177); conditions: PAK2; screened at 3000 nM
T9 construct: purchased DiscoverX; host or cells: E. coli (BL21-derived, T7 phage display) or HEK-293
T9 sequence (Q13177 whole entry): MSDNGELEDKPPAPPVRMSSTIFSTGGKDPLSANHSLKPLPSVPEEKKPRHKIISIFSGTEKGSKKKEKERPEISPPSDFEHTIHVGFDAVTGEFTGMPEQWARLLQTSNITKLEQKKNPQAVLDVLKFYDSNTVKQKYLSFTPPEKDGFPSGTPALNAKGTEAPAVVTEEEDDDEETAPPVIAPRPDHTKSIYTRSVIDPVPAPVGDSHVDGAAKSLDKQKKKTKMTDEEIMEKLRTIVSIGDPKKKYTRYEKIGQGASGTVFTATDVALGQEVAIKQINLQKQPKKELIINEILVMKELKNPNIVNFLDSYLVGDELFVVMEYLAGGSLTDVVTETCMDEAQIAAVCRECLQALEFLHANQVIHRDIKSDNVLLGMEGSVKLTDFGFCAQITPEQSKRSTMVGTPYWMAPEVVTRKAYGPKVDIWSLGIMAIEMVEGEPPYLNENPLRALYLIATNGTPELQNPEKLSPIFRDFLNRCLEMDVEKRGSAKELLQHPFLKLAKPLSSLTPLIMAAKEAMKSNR
Protocol: as §1

[10] = target: T10, panel of ninety-seven kinases (Homo sapiens, UniProt P04629); conditions: NTRK1; screened at 3000 nM
T10 construct: purchased DiscoverX; host or cells: E. coli (BL21-derived, T7 phage display) or HEK-293
Protocol: as §1

[11] = target: T11, panel of ninety-seven kinases (Homo sapiens, UniProt P16234); conditions: PDGFRA; screened at 3000 nM
T11 construct: purchased DiscoverX; host or cells: E. coli (BL21-derived, T7 phage display) or HEK-293
Protocol: as §1

[12] = target: T12, panel of ninety-seven kinases (Homo sapiens, UniProt P43403); conditions: ZAP70; screened at 3000 nM
T12 construct: purchased DiscoverX; host or cells: E. coli (BL21-derived, T7 phage display) or HEK-293
T12 sequence (P43403 whole entry): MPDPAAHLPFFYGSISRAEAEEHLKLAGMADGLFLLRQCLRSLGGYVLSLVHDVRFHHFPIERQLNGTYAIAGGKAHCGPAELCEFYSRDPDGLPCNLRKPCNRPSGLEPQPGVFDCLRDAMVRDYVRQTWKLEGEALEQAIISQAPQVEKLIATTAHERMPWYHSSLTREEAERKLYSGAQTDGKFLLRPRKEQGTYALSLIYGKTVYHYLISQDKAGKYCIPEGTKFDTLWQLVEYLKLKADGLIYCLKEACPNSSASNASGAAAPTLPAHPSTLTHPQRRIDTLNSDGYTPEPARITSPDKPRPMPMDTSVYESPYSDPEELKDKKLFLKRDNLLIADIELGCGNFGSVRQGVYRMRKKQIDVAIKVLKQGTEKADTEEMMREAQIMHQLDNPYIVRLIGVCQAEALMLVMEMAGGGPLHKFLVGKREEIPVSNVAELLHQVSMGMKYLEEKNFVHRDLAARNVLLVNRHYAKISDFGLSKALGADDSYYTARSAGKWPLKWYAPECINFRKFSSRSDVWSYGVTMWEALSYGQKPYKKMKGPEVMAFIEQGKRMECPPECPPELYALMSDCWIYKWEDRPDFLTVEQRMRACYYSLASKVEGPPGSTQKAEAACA
Protocol: as §1

[13] = target: T13, panel of ninety-seven kinases (Homo sapiens, UniProt Q15831); conditions: STK11; screened at 3000 nM
T13 construct: purchased DiscoverX; host or cells: E. coli (BL21-derived, T7 phage display) or HEK-293
T13 sequence (Q15831 whole entry): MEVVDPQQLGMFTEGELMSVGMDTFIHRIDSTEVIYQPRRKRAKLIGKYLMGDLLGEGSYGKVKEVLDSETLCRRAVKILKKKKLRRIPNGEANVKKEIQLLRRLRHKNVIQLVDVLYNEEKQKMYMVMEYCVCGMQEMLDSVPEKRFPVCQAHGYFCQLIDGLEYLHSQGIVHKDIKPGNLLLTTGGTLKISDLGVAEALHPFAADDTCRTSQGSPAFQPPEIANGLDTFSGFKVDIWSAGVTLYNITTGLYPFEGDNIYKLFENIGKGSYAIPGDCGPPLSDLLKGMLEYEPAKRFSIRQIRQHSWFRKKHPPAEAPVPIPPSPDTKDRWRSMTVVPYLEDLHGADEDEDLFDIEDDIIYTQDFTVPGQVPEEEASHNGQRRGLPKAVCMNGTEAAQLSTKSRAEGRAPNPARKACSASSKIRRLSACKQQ
Protocol: as §1

[14] = target: T14, panel of ninety-seven kinases (Homo sapiens, UniProt O15075); conditions: DCLK1; screened at 3000 nM
T14 construct: purchased DiscoverX; host or cells: E. coli (BL21-derived, T7 phage display) or HEK-293
Protocol: as §1

[15] = target: T15, panel of ninety-seven kinases (Homo sapiens, UniProt O75116); conditions: ROCK2; screened at 3000 nM
T15 construct: purchased DiscoverX; host or cells: E. coli (BL21-derived, T7 phage display) or HEK-293
Protocol: as §1

[16] = target: T16, panel of ninety-seven kinases (Homo sapiens, UniProt Q15303); conditions: ERBB4; screened at 3000 nM
T16 construct: purchased DiscoverX; host or cells: E. coli (BL21-derived, T7 phage display) or HEK-293
Protocol: as §1

[17] = target: T17, panel of ninety-seven kinases (Homo sapiens, UniProt O14965); conditions: AURKA; screened at 3000 nM
T17 construct: purchased DiscoverX; host or cells: E. coli (BL21-derived, T7 phage display) or HEK-293
Protocol: as §1

[18] = target: T18, panel of ninety-seven kinases (Homo sapiens, UniProt P49841); conditions: GSK3B; screened at 3000 nM
T18 construct: purchased DiscoverX; host or cells: E. coli (BL21-derived, T7 phage display) or HEK-293
T18 sequence (P49841 whole entry): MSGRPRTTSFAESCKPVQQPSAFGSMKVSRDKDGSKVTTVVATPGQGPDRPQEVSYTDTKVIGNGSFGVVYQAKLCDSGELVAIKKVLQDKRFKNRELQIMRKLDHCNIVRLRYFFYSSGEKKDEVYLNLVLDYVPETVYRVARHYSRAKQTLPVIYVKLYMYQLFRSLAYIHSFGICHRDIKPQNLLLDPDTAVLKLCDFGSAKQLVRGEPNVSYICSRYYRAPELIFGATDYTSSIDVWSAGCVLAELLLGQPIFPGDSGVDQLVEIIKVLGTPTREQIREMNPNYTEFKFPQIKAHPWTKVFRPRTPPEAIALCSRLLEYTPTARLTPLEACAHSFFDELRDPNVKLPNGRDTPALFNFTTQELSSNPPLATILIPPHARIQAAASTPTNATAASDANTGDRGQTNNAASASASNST
Protocol: as §1

[19] = target: T19, panel of ninety-seven kinases (Homo sapiens, UniProt P07949); conditions: RET; screened at 3000 nM
T19 construct: purchased DiscoverX; host or cells: E. coli (BL21-derived, T7 phage display) or HEK-293
Protocol: as §1

[20] = target: T20, panel of ninety-seven kinases (Homo sapiens, UniProt Q86V86); conditions: PIM3; screened at 3000 nM
T20 construct: purchased DiscoverX; host or cells: E. coli (BL21-derived, T7 phage display) or HEK-293
Protocol: as §1

[21] = target: T21, panel of ninety-seven kinases (Homo sapiens, UniProt P04626); conditions: ERBB2; screened at 3000 nM
T21 construct: purchased DiscoverX; host or cells: E. coli (BL21-derived, T7 phage display) or HEK-293
T21 sequence (P04626 23-1255): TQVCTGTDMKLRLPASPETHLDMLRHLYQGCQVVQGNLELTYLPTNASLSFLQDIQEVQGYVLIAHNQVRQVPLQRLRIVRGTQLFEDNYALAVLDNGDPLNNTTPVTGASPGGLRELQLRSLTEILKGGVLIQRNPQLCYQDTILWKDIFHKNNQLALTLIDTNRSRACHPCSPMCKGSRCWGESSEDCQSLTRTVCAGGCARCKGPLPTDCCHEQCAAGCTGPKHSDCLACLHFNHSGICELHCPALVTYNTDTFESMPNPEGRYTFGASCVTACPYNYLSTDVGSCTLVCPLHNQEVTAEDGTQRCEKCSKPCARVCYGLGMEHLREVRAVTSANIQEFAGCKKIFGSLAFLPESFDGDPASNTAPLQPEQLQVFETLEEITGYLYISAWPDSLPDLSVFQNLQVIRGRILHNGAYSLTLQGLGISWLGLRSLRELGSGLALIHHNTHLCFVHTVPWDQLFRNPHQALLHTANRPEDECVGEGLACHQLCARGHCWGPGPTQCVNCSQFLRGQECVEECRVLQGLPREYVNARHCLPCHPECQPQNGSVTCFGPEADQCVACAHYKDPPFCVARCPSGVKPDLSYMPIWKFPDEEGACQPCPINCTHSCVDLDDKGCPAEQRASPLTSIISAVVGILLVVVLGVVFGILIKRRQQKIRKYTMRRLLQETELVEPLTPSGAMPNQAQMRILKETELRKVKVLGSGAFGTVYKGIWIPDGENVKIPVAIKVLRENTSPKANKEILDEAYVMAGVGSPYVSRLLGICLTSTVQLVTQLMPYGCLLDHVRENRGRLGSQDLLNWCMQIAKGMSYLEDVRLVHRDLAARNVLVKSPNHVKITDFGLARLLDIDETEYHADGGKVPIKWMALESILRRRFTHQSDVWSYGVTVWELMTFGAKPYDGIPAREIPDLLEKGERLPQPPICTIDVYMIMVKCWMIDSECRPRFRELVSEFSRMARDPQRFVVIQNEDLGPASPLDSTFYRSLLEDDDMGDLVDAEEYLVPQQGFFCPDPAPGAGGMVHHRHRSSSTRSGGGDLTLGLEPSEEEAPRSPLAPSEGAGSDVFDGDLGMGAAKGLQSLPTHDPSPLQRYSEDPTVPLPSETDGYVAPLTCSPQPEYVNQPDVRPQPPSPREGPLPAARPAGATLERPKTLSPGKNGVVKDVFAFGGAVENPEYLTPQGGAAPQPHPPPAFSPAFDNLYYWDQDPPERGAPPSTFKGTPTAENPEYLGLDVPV
Protocol: as §1

[22] = target: T22, panel of ninety-seven kinases (Homo sapiens, UniProt P45984); conditions: MAPK9; screened at 3000 nM
T22 construct: purchased DiscoverX; host or cells: E. coli (BL21-derived, T7 phage display) or HEK-293
T22 sequence (P45984 whole entry): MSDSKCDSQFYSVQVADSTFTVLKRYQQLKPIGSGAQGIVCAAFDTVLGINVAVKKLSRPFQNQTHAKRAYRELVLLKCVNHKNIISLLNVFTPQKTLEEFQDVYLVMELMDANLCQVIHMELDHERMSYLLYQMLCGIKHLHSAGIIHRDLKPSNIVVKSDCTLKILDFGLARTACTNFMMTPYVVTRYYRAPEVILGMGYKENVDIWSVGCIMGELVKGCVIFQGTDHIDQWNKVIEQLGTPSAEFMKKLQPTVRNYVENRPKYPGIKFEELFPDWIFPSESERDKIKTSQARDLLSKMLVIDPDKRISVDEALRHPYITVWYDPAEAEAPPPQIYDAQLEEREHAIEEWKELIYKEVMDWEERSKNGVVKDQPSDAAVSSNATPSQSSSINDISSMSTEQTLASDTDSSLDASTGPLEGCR
Protocol: as §1

## CN(C)CCNC(=O)c1ccc(-c2ccc(-c3ccc(Cl)cc3)n2-c2ccccc2C(F)(F)F)cc1 (single isomer, unassigned) [Atropisomer A-2]
[1]
  % Ctrl @ 3 μM: 95 % Ctrl
[2]
  % Ctrl @ 3 μM: 91 % Ctrl
[3]
  % Ctrl @ 3 μM: 94 % Ctrl
[4]
  % Ctrl @ 3 μM: 75 % Ctrl
[5]
  % Ctrl @ 3 μM: 99 % Ctrl
[6]
  % Ctrl @ 3 μM: 87 % Ctrl
[7]
  % Ctrl @ 3 μM: 93 % Ctrl
[8]
  % Ctrl @ 3 μM: 85 % Ctrl
[9]
  % Ctrl @ 3 μM: 100 % Ctrl
[10]
  % Ctrl @ 3 μM: 100 % Ctrl
[11]
  % Ctrl @ 3 μM: 100 % Ctrl
[12]
  % Ctrl @ 3 μM: 92 % Ctrl
[13]
  % Ctrl @ 3 μM: 81 % Ctrl
[14]
  % Ctrl @ 3 μM: 87 % Ctrl
[15]
  % Ctrl @ 3 μM: 88 % Ctrl
[16]
  % Ctrl @ 3 μM: 99 % Ctrl
[17]
  % Ctrl @ 3 μM: 98 % Ctrl
[18]
  % Ctrl @ 3 μM: 88 % Ctrl
[19]
  % Ctrl @ 3 μM: 95 % Ctrl
[20]
  % Ctrl @ 3 μM: 98 % Ctrl
[21]
  % Ctrl @ 3 μM: 66 % Ctrl
[22]
  % Ctrl @ 3 μM: 80 % Ctrl
